In ChEMBL document CHEMBL4706534, “1,2,3-Triazole-containing hybrids with potential antibacterial activity against methicillin-resistant Staphylococcus aureus (MRSA)” (Eur J Med Chem, 2020):
≈ marks a conversion by molar mass, not a printed value.

Columns and labels:
Staphylococcus aureus [1] = experiment: Antibacterial activity against Methicillin-resistant Staphylococcus aureus N315 incubated for 24 hrs by two fold serial dilution method; format: functional
Staphylococcus aureus [2] = experiment: Antibacterial activity against Staphylococcus aureus ATCC 25923 incubated for 24 hrs by two fold serial dilution method; format: functional
Staphylococcus aureus [3] = experiment: Antibacterial activity against Methicillin-resistant Staphylococcus aureus KU60; format: functional
Staphylococcus aureus [4] = experiment: Antibacterial activity against Methicillin-resistant Staphylococcus aureus 2 incubated for 16 hrs by agar dilution method; format: functional
Staphylococcus aureus [5] = experiment: Antibacterial activity against Methicillin-resistant Staphylococcus aureus 1 incubated for 16 hrs by agar dilution method; format: functional
Staphylococcus aureus [6] = experiment: Resistance index, ratio of MIC for antibacterial activity against methicillin-resistant Staphylococcus aureus […] to MIC for antibacterial activity against methicillin-sensitive Staphylococcus aureus; format: functional
Staphylococcus aureus [7] = experiment: Antibacterial activity against Staphylococcus aureus ATCC 25923 by CLSI-based broth microdilution method; format: functional
Staphylococcus aureus [8] = experiment: Resistance index, ratio of MIC for antibacterial activity against Staphylococcus aureus ATCC 43300 incubated for 16 to 18 hrs by CLSI based assay to MIC for antibacterial activity against Staphylococcus aureus DSM 20231 incubated for 16 to 18 hrs by CLSI based assay; format: functional; settings: time 16-18 hrs
Staphylococcus aureus [9] = experiment: Antibacterial activity against methicillin-resistant Staphylococcus aureus ATCC 43300 incubated for 16 to 18 hrs by CLSI based assay; format: functional; settings: time 16-18 hrs
Enterococcus = experiment: Antibacterial activity against vancomycin resistant Enterococcus ATCC 51299; format: functional
Enterococcus faecalis = experiment: Antibacterial activity against vancomycin susceptible Enterococcus faecalis ATCC 29212; format: functional
Staphylococcus aureus [10] = experiment: Antibacterial activity against Methicillin-resistant Staphylococcus aureus ATCC 33591; format: functional, organism-based

Structure (SMILES): Cc1ccc2c(c1)nnn2CC(O)Cn1cnc2cc(Cl)ccc2c1=O (configuration not stated)
- MIC (Staphylococcus aureus [1]): ≥ 64 mg/L
- MIC (Staphylococcus aureus [2]): ≥ 64 mg/L

Structure (SMILES): CC(C)(C)C(=O)N1CCN(c2ccc(N3C[C@H](Cn4ccnn4)OC3=O)cc2F)CC1
- MIC (Staphylococcus aureus [3]): 0.25 mg/L (≈ 0.581 µM)

Structure (SMILES): C#CCOCCOCCOCc1cn([C@H](CC(C)C)C(=O)N[C@@H]2Cc3ccc(c(Cl)c3)Oc3cc4cc(c3O[C@@H]3O[C@H](CO)[C@@H](O)[C@H](O)[C@H]3O[C@H]3C[C@](C)(NCCCCCCCc5ccccc5)[C@H](O)[C@H](C)O3)Oc3ccc(cc3Cl)[C@@H](O)[C@@H]3NC(=O)[C@H](NC(=O)[C@@H]4NC(=O)[C@H](CC(=O)O)NC2=O)c2ccc(O)c(c2)-c2c(O)cc(O)cc2[C@H](C(=O)O)NC3=O)nn1
- MIC (Staphylococcus aureus [4]): 12.5 mg/L (≈ 6.93 µM)
- MIC (Staphylococcus aureus [5]): 25 mg/L (≈ 13.9 µM)

Structure (SMILES): c1ccc(SCn2cc(COc3ccc(-c4nc5cc(C6=NCCN6)ccc5[nH]4)cc3)nn2)cc1
- Ratio (Staphylococcus aureus [6]): 0.125
- MIC (Staphylococcus aureus [7]): 8 mg/L (≈ 16.6 µM)

Structure (SMILES): Cc1ccc2c(c1)nnn2CC(O)Cn1cnc2cc(F)ccc2c1=O (configuration not stated)
- MIC (Staphylococcus aureus [1]): ≥ 64 mg/L
- MIC (Staphylococcus aureus [2]): ≥ 64 mg/L

Structure (SMILES): N=C(N)NCCC[C@H](NC(=O)[C@H](Cc1c[nH]c2ccccc12)NC(=O)[C@H](CCCNC(=N)N)NC(=O)[C@H](Cc1c[nH]c2ccccc12)NC(=O)[C@@H](N)CCCNC(=N)N)C(=O)N[C@@H](Cc1c[nH]c2ccccc12)C(=O)N[C@@H](CCCCn1cc(COc2cccc(OCc3cn(CCCC[C@H](NC(=O)[C@H](Cc4c[nH]c5ccccc45)NC(=O)[C@H](CCCNC(=N)N)NC(=O)[C@H](Cc4c[nH]c5ccccc45)NC(=O)[C@H](CCCNC(=N)N)NC(=O)[C@H](Cc4c[nH]c5ccccc45)NC(=O)[C@@H](N)CCCNC(=N)N)C(N)=O)nn3)c2)nn1)C(N)=O
- Ratio (Staphylococcus aureus [8]): 0.5
- MIC (Staphylococcus aureus [9]): 2.7 µM (≈ 6.97 µg/mL)

Structure (SMILES): O=c1c2ccc(F)cc2ncn1CC(O)Cn1nnc2ccccc21 (configuration not stated)
- MIC (Staphylococcus aureus [1]): ≥ 64 mg/L
- MIC (Staphylococcus aureus [2]): ≥ 64 mg/L

Structure (SMILES): CC(C)NC(=N)c1ccc2[nH]c(-c3ccc(OCc4cn(-c5ccccc5Cl)nn4)cc3)nc2c1
- Ratio (Staphylococcus aureus [6]): 0.125
- MIC (Staphylococcus aureus [7]): 8 mg/L (≈ 16.5 µM)

Structure (SMILES): CN[C@H](CC(C)C)C(=O)N[C@@H]1Cc2ccc(c(Cl)c2)Oc2cc3cc(c2O[C@@H]2O[C@H](CO)[C@@H](O)[C@H](O)[C@H]2O[C@H]2C[C@](C)(N)[C@H](O)[C@H](C)O2)Oc2ccc(cc2Cl)[C@@H](O)[C@@H]2NC(=O)[C@H](NC(=O)[C@@H]3NC(=O)[C@H](CC(=O)O)NC1=O)c1ccc(O)c(c1)-c1c(O)cc(O)cc1[C@H](C(=O)NCCOCCOCCOCCn1cc(CCNC(=O)[C@@H]3NC(=O)[C@H]4NC(=O)[C@H](NC(=O)[C@@H]5NC(=O)[C@H](CC(=O)O)NC(=O)[C@H](NC(=O)[C@@H](CC(C)C)NC)Cc6ccc(c(Cl)c6)Oc6cc5cc(c6O[C@@H]5O[C@H](CO)[C@@H](O)[C@H](O)[C@H]5O[C@H]5C[C@](C)(N)[C@H](O)[C@H](C)O5)Oc5ccc(cc5Cl)[C@H]4O)c4ccc(O)c(c4)-c4c(O)cc(O)cc43)nn1)NC2=O
- MIC (Enterococcus): 0.5 mg/L (≈ 0.16 µM)
- MIC (Enterococcus faecalis): 0.5 mg/L (≈ 0.16 µM)
- MIC (Staphylococcus aureus [10]): 0.5 mg/L (≈ 0.16 µM)

Structure (SMILES): CC(C)NC(=N)c1ccc2[nH]c(-c3ccc(OCc4cn(CSc5ccccc5)nn4)cc3)nc2c1
- Ratio (Staphylococcus aureus [6]): 0.125
- MIC (Staphylococcus aureus [7]): 8 mg/L (≈ 16.1 µM)

Structure (SMILES): N=C(N)NCCC[C@H](NC(=O)[C@H](Cc1c[nH]c2ccccc12)NC(=O)[C@H](CCCNC(=N)N)NC(=O)[C@H](Cc1c[nH]c2ccccc12)NC(=O)[C@@H](N)CCCNC(=N)N)C(=O)N[C@@H](Cc1c[nH]c2ccccc12)C(=O)N[C@@H](CCCCn1cc(COc2cc(OCc3cn(CCCC[C@H](NC(=O)[C@H](Cc4c[nH]c5ccccc45)NC(=O)[C@H](CCCNC(=N)N)NC(=O)[C@H](Cc4c[nH]c5ccccc45)NC(=O)[C@H](CCCNC(=N)N)NC(=O)[C@H](Cc4c[nH]c5ccccc45)NC(=O)[C@@H](N)CCCNC(=N)N)C(N)=O)nn3)cc(OCc3cn(CCCC[C@H](NC(=O)[C@H](Cc4c[nH]c5ccccc45)NC(=O)[C@H](CCCNC(=N)N)NC(=O)[C@H](Cc4c[nH]c5ccccc45)NC(=O)[C@H](CCCNC(=N)N)NC(=O)[C@H](Cc4c[nH]c5ccccc45)NC(=O)[C@@H](N)CCCNC(=N)N)C(N)=O)nn3)c2)nn1)C(N)=O
- Ratio (Staphylococcus aureus [8]): 0.5
- MIC (Staphylococcus aureus [9]): 2.7 µM (≈ 10.4 µg/mL)
